Data reported in patent EP1268431B1 (Wyeth, priority 2000, dated 2001).
“And” between values parts separate entries of the source, which are not always exact repeats. Equal values may be shown once.

target: T1, c-Src (Homo sapiens, UniProt P12931); experiment: c-Src Kinase Assay (ELISA format); format: biochemical; conditions: not given
T1 construct: purchased Upstate Biotechnologies
Experimental: Inhibitors of Src (partially purified preparation purchased from Upstate Biotechnologies) tyrosine kinase activity are analyzed in an ELISA format. […] Horseradish Peroxidase (HRP)-conjugated anti-phosphotyrosine is used to detect phosphorylated peptide via a color reaction. Conditions recommended by the manufacturer are employed.
Reaction conditions: Five microliter aliquots of each compound prepared fresh at the time of the assay are added as a solution in 10mM HEPES pH 7.5, 10% DMSO to the reaction well. Thirty-five microliters of reaction mix containing Src, buffer and peptide/bovine serum albumin mix are added to the compound wells and incubated at 30°C for 10 minutes (reaction buffer: 50mM TrisHCl pH 7.5, 10mM MgCl2, 0.1mM EGTA, 0.5mM Na3VO4). The reaction is started by addition of 10 microliters of ATP, incubated at 30°C for 1 hour, and stopped by addition of 20 microliters of 0.5M EDTA. The reaction mixture with the phosphorylated peptide is then transferred to a streptavidin-coated microtiter plate (provided in the kit) and allowed to bind for 20 minutes. Unbound peptide and reaction mixture is decanted and the plate is washed with PBS six times. HRP-conjugated phosphotyrosine antibody supplied in the kit is incubated with the plate for one hour, then decanted. The plate is again washed with PBS six times.
Activity is determined as % inhibition as calculated by the formula: (1 - Abs/Abs(max)) x 100 = % inhibition.

Compared with COc1cc(Nc2c(C#N)cnc3cc(-c4ccc(N5CCN(C)CC5)nc4)ccc23)c(Cl)cc1Cl [Example 198, 4-(2,4-dichloro-5-methoxyanilino)-7-[6-(4-methyl-1-piperazinyl)-3-pyridinyl]-3-quinolinecarbonitrile], CCN1CCN(c2ccc(-c3ccc4c(Nc5cc(OC)c(Cl)cc5Cl)c(C#N)cnc4c3)cn2)CC1 [Example 197, 4-(2,4-dichloro-5-methoxyanilino)-7-[6-(4-ethyl-1-piperazinyl)-3-pyridinyl]-3-quinolinecarbonitrile] is 2.3-fold higher in IC50: 1.9 nM for the first, 4.4 nM for the second.

COc1cc(Nc2c(C#N)cnc3cc(-c4cnc(CN5CCOCC5)n4C)ccc23)c(Cl)cc1Cl [Example 226, 4-(2,4-dichloro-5-methoxyanilino)-7-[1-methyl-2-(4-morpholinylmethyl)-1H-imidazol-5-yl]-3-quinolinecarbonitrile] and COc1cc(Nc2c(C#N)cnc3cc(-c4cnc(CN5CCN(C)CC5)n4C)ccc23)c(Cl)cc1Cl [Example 227, 4-(2,4-dichloro-5-methoxyanilino)-7-{1-methyl-2-[(4-methyl-1-piperazinyl)methyl]-1H-imidazol-5-yl}-3-quinolinecarbonitrile] are within 1.5-fold of each other in IC50: 31 nM for the first, 25 nM for the second.

Compared with COc1cc(Nc2c(C#N)cnc3ccc(-c4csc(C=O)c4)cc23)c(Cl)cc1Cl [Example 45, 4-(2,4-Dichloro-5-methoxyanilino)-6-(5-formyl-3-thienyl)-3-quinolinecarbonitrile], COc1cc(Nc2c(C#N)cnc3cc(-c4csc(C=O)c4)ccc23)c(Cl)cc1Cl [Example 43, 4-(2,4-Dichloro-5-methoxyanilino)-7-(5-formyl-3-thienyl)-3-quinolinecarbonitrile] is 30-fold lower in IC50: 51 nM for the first, 1.7 nM for the second. The second is the more potent here.

First: COc1cc(Nc2c(C#N)cnc3cc(-c4cc(CN5CCOCC5)cs4)ccc23)c(Cl)cc1Cl [Example 68, 4-(2,4-Dichloro-5-methoxyanilino)-7-[4-(4-morpholinylmethyl)-2-thienyl]-3-quinolinecarbonitrile]
Second: COc1cc(Nc2c(C#N)cnc3cc(-c4cccc(CN5CCOCC5)c4)ccc23)c(Cl)cc1Cl [Example 26, 4-(2.4-Dichloro-5-methoxyanilino)-7-[3-(4-morpholinylmethyl)phenyl]-3-quinolinecarbonitrile]
The IC50 of the first is 16-fold lower: 1.5 nM for the first, 24 nM for the second. The first is the more potent here.

First: COc1cc(Nc2c(C#N)cnc3cc(-c4ccc(CN5CC[S+]([O-])CC5)cc4)ccc23)c(Cl)cc1Cl [Example 151, 4-[(2,4-dichloro-5-methoxyphenyl)amino]-7-{4-[(1-oxido-4-thiomorpholinyl)methyl]phenyl}-3-quinolinecarbonitrile]
Second: COc1cc(Nc2c(C#N)cnc3cc(-c4ccc(CN5CCC(C(=O)O)CC5)cn4)ccc23)c(Cl)cc1Cl [Example 177, 1-{6-[3-cyano-4-(2,4-dichloro-5-methoxyphenylamino)-quinolin-7yl]-pyridin-3-ylmethyl}-piperidine-4-carboxylic acid]
The IC50 of the first is 6.8-fold higher: 4.7 nM for the first, 0.69 nM for the second.

First: COc1cc(Nc2c(C#N)cnc3ccc(-c4csc(CN5CCOCC5)c4)cc23)c(Cl)cc1Cl [Example 50, 4-(2.4-Dichloro-5-methoxyanilino)-6-[5-(4-morpholinylmethyl)-3-thienyl]3-quinolinecarbonitrile]
Second: COc1cc(Nc2c(C#N)cnc3cc(-c4cccc(CN5CCOCC5)c4)c(OC)cc23)c(Cl)cc1Cl [Example 39, 4-(2,4-Dichloro-5-methoxyanilino)-6-methoxy-7-[3-(4-morpholinylmethyl]phenyl}-3-quinolinecarbonitrile]
The IC50 of the first is 2-fold lower: 111 nM for the first, 220 nM for the second.

COc1cc(Nc2c(C#N)cnc3cc(-c4csc(C5OCCO5)c4)ccc23)c(Cl)cc1Cl [Example 42, 4-(2,4-Dichloro-5-methoxyanilino)-7-[5-(1,3-dioxolan-2-yl)-3-thienyl]-3-quinolinecarbonitrile] and COc1cc(Nc2c(C#N)cnc3cc(-c4ccc(N5CCOCC5)nc4)ccc23)c(Cl)cc1Cl [Example 185, 4-(2,4-dichloro-5-methoxyanilino)-7-[6-(4-morpholinyl)-3-pyridinyl]-3-quinolinecarbonitrile] are within 1.5-fold of each other in IC50: 2.7 nM for the first, 3.4 nM for the second.

Compared with COc1cc(Nc2c(C#N)cnc3cc(-c4cnc(C=O)n4C)ccc23)c(Cl)cc1Cl [Example 96, 4-(2,4-Dichloro-5-methoxyanilino)-7-(2-formyl-1-methyl-1H-imidazol-5-yl)-3-quinolinecarbonitrile], N#Cc1cnc2cc(-c3csc(C=O)c3)ccc2c1Nc1ccc(Cl)cc1Cl [Example 44, 4-(2,4-Dichloroanilino)-7-(5-formyl-3-thienyl)-3-quinolinecarbonitrile] is 9.6-fold lower in IC50: 240 nM for the first, 25 nM for the second. The second is the more potent here.

First: N#Cc1cnc2cc(-c3csc(CN4CCOCC4)c3)ccc2c1Nc1ccc(Cl)cc1F [Example 1, 4-(4-Chloro-2-fluoroanilino)-7-[5-(4-morpholinylmethyl)-3-thienyl]-3-quinolinecarbonitrile]
Second: COc1cc(Nc2c(C#N)cnc3cc(-c4ccc(CN5CCOCC5)c(CN5CCOCC5)c4)ccc23)c(Cl)cc1Cl [Example 34, 7-[3,4-Bis(4-morpholinylmethyl)phenyl]-4-(2,4-dichloro-5-methoxyanilino)-3-quinolinecarbonitrile]
The IC50 of the first is 8.3-fold higher: 25 nM for the first, 3 nM for the second. The second is the more potent here.

Going from N#Cc1cnc2cc(-c3ccc(-c4ccccn4)s3)ccc2c1Nc1ccc(Cl)cc1Cl [Example 18, 4-(2,4-Dichloroanilino)-7-[5-(2-pyridinyl)-2-thienyl]-3-quinolinecarbonitrile] to COc1cc(Nc2c(C#N)cnc3cc(-c4ccc(CCN5CCOCC5)cc4)c(OC)cc23)c(Cl)cc1Cl [Example 40, 4-(2,4-Dichloro-5-methoxyanilino)-6-methoxy-7-{4-[2-(4-morpholinyl)ethyl]phenyl}-3-quinolinecarbonitrile], the IC50 falls from 180 nM to 10 nM (18-fold). The second is the more potent here.

With COc1cc(Nc2c(C#N)cnc3cc(-c4cnc(CN5CCN(C)CC5)n4C)c(OC)cc23)c(Cl)cc1Cl [Example 233, 4-(2,4-dichloro-5-methoxyanilino)-6-methoxy-7-{1-methyl-2-[(4-methyl-1-piperazinyl)methyl]-1H-imidazol-5-yl}-3-quinolinecarbonitrile] the IC50 was 28 nM.

“4-(2,4-Dichloro-5-methoxyanilino)-6-methoxy-7-(1H-pyrrol-1-yl)-3-quinolinecarbonitrile [Example 59]” was tested, and the IC50 was 12 nM and 15 nM.
COc1cc(Nc2c(C#N)cnc3cc(-c4ccc(/C=C/CN5CCOCC5)s4)ccc23)c(Cl)cc1Cl [Example 21, 4-(2,4-Dichloro-5-methoxyanilino)-7-{5-[(E)-3-(4-morpholinyl)-1-propenyl]-2-thienyl}-3-quinolinecarbonitrile] was tested, and the IC50 was 40 nM and 9 nM.
CCN1CCN(Cc2ccc(-c3cc4ncc(C#N)c(Nc5cc(OC)c(Cl)cc5Cl)c4cc3OC)cc2)CC1 [Example 31, 4-(2,4-Dichloro-5-methoxyanilino)-7-{4-[(4-ethyl-1-piperazinyl)methyl]phenyl}-6-methoxy-3-quinolinecarbonitrile] was tested, and the IC50 was 8.3 nM and 5.6 nM.
For CCN1CCN(Cc2ccc(-c3ccc4c(Nc5cc(OC)c(Cl)cc5Cl)c(C#N)cnc4c3)cc2)CC1 [Example 30, 4-(2,4-Dichloro-5-methoxyanilino)-7-{4-[(4-ethyl-1-piperazinyl)methyl]phenyl}-3-quinolinecarbonitrile], the IC50 was 4.4 nM and 1.5 nM.

same assay, conditions: at 1 µM

Work on N#Cc1cnc2cc(C#CCO)ccc2c1Nc1ccc(Cl)cc1Cl [Example 14, 4-(2,4-Dichloroanilino)-7-(3-hydroxy-1-propynyl)-3-quinolinecarbonitrile] yielded an inhibition at 1 µM of 40%.

same assay, conditions: at 10 µM

COc1cc(Nc2c(C#N)cnc3cc(-c4cccc([N+](=O)[O-])c4)ccc23)c(Cl)cc1Cl [Example 122, 4-(2,4-Dichloro-5-methoxyanilino)-7-(3-nitrophenyl)-3-guinolinecarbonitrile] showed an inhibition at 10 µM of 44%.

system: Rat2 fibroblasts stably transformed with a plasmid containing a CMV promotor controlled v-Src/Hu c-Src fusion gene; experiment: Anchorage Independent Src-transformed Fibroblast Proliferation Assay; conditions: Rattus norvegicus, Rat2, 120 h, read-out: anch-indep src-tx fib IC50

Compared with COc1cc(Nc2c(C#N)cnc3cc(-c4ccc(CN5CCOCC5)cn4)ccc23)c(Cl)cc1Cl [Example 57, 4-(2,4-Dichloro-5-methoxyanilino)-7-[5-(4-morpholinylmethyl)-2-pyridinyl]-3-quinolinecarbonitrile], COc1cc(Nc2c(C#N)cnc3cc(-c4ccc(CN5CCN(C)CC5)o4)ccc23)c(Cl)cc1Cl [Example 41] is 7.6-fold higher in IC50: 50 nM for the first, 380 nM for the second.

same assay, conditions: Rattus norvegicus, Rat2, 120 h, read-out: anch-indep src-tx fib IC50, suspension growth, MTS on Day 5

COc1cc(Nc2c(C#N)cnc3cc(C#CCN4CCOCC4)ccc23)c(Cl)cc1Cl [Example 146, 4-(2,4-dichloro-5-methoxyanilino)-7-[3-(4-morpholinyl)-1-propynyl]-3-quinolinecarbonitrile] and COc1cc(Nc2c(C#N)cnc3cc(C#CCCl)ccc23)c(Cl)cc1Cl [Example 152, 7-(3-chloro-1-propynyl)-4-[(2,4-dichloro-5-methoxyphenyl)amino]-3-quinolinecarbonitrile] are within 1.5-fold of each other in IC50: 6500 nM for the first, 4800 nM for the second.

Compound COc1cc(Nc2c(C#N)cnc3cc(-c4ccc(CN5CCSCC5)cc4)ccc23)c(Cl)cc1Cl [Example 153, 4-[(2,4-dichloro-5-methoxyphenyl)amino]-7-[4-(4-thiomorpholinylmethyl)phenyl]-3-quinolinecarbonitrile] has an IC50 of 2800 nM.

same assay, conditions: read-out: anch-indep src-tx fib IC50; suspension growth, MTS on Day 5

Compared with “4-(2,4-dichloro-5-methoxyanilino)-7-{4-[(4-methyl-1-piperazinyl)]phenyl}-3-quinolinecarbonitrile [Example 218]”, COc1cc(Nc2c(C#N)cnc3cc(-c4ccc(CN5CCSCC5)cc4)ccc23)c(Cl)cc1Cl [Example 153, 4-[(2,4-dichloro-5-methoxyphenyl)amino]-7-[4-(4-thiomorpholinylmethyl)phenyl]-3-quinolinecarbonitrile] is 4.5-fold higher in IC50: 600 nM for the first, 2700 nM for the second. The first is the more potent here.

With COc1cc(Nc2c(C#N)cnc3cc(C#CCCl)ccc23)c(Cl)cc1Cl [Example 152, 7-(3-chloro-1-propynyl)-4-[(2,4-dichloro-5-methoxyphenyl)amino]-3-quinolinecarbonitrile] the IC50 was 3800 nM.
